From article PMC13596996 (Cell, 2026)

System: GABAA receptor
Experiment: whole-cell voltage-clamp, dose-response, blocked by gabazine
Set-up: species or system Mus musculus

## [H]/N=C(/N)NCC(=O)O [GAA, guanidinoacetate]
  EC50: 134 µM
